In patent publication US20260029420A1, “ANTI-CB2 ANTIBODIES AND THEIR USE IN A FLOW CYTOMETRY ASSAY TO MEASURE CELL SURFACE CB2 EXPRESSION” (Hoffmann-La Roche Inc., priority 2022, published 2026):
pIC50: −log10 of the molar value. “And” between values parts separate entries of the source, which are not always exact repeats. Equal values may be shown once.

Key:
CB2 [1] = biological target: T1, CB2 (Homo sapiens, UniProt P34972); assay: CB2 internalization flow cytometry assay in whole blood of working-age healthy participants; format: cell-based; conditions: for pIC50: B-cells
T1 construct: measured in whole blood samples from nine different healthy human volunteers of working-age; endogenous in cells; host or cells: B-cells (and basophils and other leukocytes) in human whole blood
T1 sequence (P34972 whole entry): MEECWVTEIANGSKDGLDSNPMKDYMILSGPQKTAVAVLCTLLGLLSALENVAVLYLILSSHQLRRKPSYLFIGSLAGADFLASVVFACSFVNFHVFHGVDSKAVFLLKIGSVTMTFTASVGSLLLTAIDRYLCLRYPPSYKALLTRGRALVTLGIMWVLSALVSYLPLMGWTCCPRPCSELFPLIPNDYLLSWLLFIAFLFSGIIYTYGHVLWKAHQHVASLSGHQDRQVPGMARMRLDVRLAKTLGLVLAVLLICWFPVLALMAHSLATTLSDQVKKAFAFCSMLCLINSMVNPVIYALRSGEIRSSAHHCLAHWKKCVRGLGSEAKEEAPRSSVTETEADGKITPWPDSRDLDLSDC
Procedure: FIG. 7: IC50 determination for CB2 internalization on B-cells in response to RG7774 in whole blood of healthy participants. Human whole blood was incubated with RG7774 for 1 hour at 37° C. followed by incubation with the anti-human CB2 antibody 1/622. The expression of CB2 on the surface of B-cells was analyzed using a lineage marker mix specific for B-cells (CD45^+ CD3^− CD14^− CD19^+) and T-cells (CD45^+ CD3^+ CD14^−). The B/T-cell CB2 MFI ratio was calculated and normalized to baseline. 0 μM was set as 100% baseline receptor expression.
The CB2 is member of the G-protein coupled receptor family which upon ligand (agonist) binding can respond by internalization of the receptor into the endosomal compartment of the cell, thereby removing the respective receptor form the cell surface and initiating downstream signaling effects (Calebiro, D. et al. Best Pract Res Clin Endocrinol Metab 2018:32 (2):83-91). Such changes in cell surface expression of CB2 on B-cells in response to the treatment with the CB2 agonist RG7774 were measured in whole blood samples from nine different healthy human volunteers of working-age. Whole blood samples were treated with eight compound concentrations in duplicates to determine IC50 of RG7774 using a newly developed flow cytometry assay.
Na-Heparin whole blood samples were incubated in a 96-well plate with RG7774 for 1 hour at 37° C. in a humidified incubator with 5% CO2. Samples were harvested from the 96-well plate and 100 μl were transferred to labeled 5 ml Polystyrene Round Bottom Tubes (Becton Dickinson, Cat #352052). The unlabeled anti-CB2 antibody clone 1/622 was diluted to 50μg/ml with cell staining buffer (BioLegend, Cat #420201). 100 μl diluted anti-CB2 antibody was added to each tube and incubated for 30 minutes at 4° C. For the red blood cell lysis 10× BD PharmLyse lysing buffer (Becton Dickinson, Cat #55899) was diluted to 1× with distilled water and prewarmed to approximately 20° C. After the CB2 antibody incubation 2 ml of prewarmed 1× BD PharmLyse lysing buffer was added to each tube, mixed and incubated for 15 minutes at approximately 20° C. After the incubation, the tubes were centrifuged for 5 minutes at 250×g and 4° C. The supernatant was removed completely, cells were washed two times with cold cell staining buffer and supernatant removed completely after the centrifugation. Human FcR Blocking Reagent (Miltenyi Biotech, Cat #130-059-901) was diluted according to the package insert instructions with cold cell staining buffer. To each sample 50 μl was added, mixed and incubated for 10 minutes at 4° C. The secondary antibody Goat F(ab′)2 Anti-Mouse IgG3 PE (Southern Biotech, Cat #1102-09) was diluted 1:25 in cold cell staining buffer. To each sample 50 μl was added, mixed and incubated for 30 minutes at 4° C. in the dark. […]
For determination of cell surface expression of CB2 on B-cells, median fluorescent intensity (MFI) was analyzed by gating around the CD45^+ CD3^− CD14^− CD19^+ B-cells (see gating strategy in FIG. 6A to FIG. 6E) and acquiring a minimum of 2000 events in this gate (FIG. 6F). With the lineage marker mix other cell populations like T-cells (CD45^+ CD3^+ CD14^−), Monocytes (CD45^+ CD3^− CD14^+), Basophils (CD45^+ CD3^− CD14^− CD19^− CD193^+ IgE^+), NK cells (CD45^+ CD3^− CD14^− CD19^− CD193^− IgE^− CD16^+ CD56^+), Eosinophils (CD45^+ CD16^−) and Neutrophils (CD45^+ CD16^+) could be analyzed.

CB2 [2] = biological target: CB2 (Macaca fascicularis, UniProt G7NVV5); assay: In vivo CB2 internalization on B-cells upon oral dosing in Cynomolgus monkeys; set-up: species or system Cynomolgus monkey
Chain of CB2 (Macaca fascicularis, UniProt G7NVV5) (G7NVV5 1-360): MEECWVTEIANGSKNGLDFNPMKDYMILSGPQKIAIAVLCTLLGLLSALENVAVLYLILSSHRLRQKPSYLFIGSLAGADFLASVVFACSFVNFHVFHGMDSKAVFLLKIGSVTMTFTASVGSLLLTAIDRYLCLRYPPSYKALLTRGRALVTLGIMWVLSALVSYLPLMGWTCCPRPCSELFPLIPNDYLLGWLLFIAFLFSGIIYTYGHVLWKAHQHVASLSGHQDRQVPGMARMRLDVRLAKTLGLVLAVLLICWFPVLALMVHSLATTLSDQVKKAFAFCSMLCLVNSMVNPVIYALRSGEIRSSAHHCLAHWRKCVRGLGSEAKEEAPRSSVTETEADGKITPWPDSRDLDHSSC
Procedure: FIG. 11: In vivo feasibility for the new CB2 flow cytometry assay to monitor pharmacodynamic response in vitro on B-cells upon oral dosing. Six healthy Cynomolgus monkeys were dosed with three different doses of an oral micro suspension of RG7774 with two animals per dose group. Blood drawn at different time points was incubated with the anti-human CB2 antibody 1/622. The expression of CB2 on the surface of B-cells was analyzed using a lineage marker mix specific for B-cells and T-cells. The B/T-cell CB2 MFI ratio was calculated and normalized to baseline. 0 μM served as 100% baseline receptor expression. For the animal Mina, blood samples could only be taken up to 1 hour after experimental start, since the animal had to be remove of the study due to a rectal prolapse.
FIG. 12: Single dose in vivo study monitoring the pharmacodynomic effect of RG7774 on CB2 expression on B-cells in Cynomolgus upon oral dosing. Three healthy cynomolgus monkeys were dosed with 100 mg/kg of the CB2 agonist RG7774. The blood draw at different time points was followed by the incubation with the anti-human CB2 antibody 1/622. The expression of CB2 on the surface of B-cells was analyzed using a lineage marker mix specific for B-cells and T-cells. The B/T-cell CB2 MFI ratio was calculated and normalized to baseline. 0 μM served as 100% baseline receptor expression. […] Due to a storage effect of the antibody working dilution (5 μg/sample) of the anti-human CB2 Ab 1/622 the 4 and 7 hours' time point have been excluded. The working dilution of this antibody is only stable for 2 hours on ice.
The feasibility of applying the newly developed CB2 flow cytometry assay as an assay to monitor pharmacodynamic response to oral doses of RG7774 was evaluated in three groups of two Cynomolgus monkeys. Upon oral administration of three different single doses of a micro suspension of 0.5, 5 and 100 mg/kg RG7774 respectively, blood samples from all animals were taken at the selected time points: 0 (pre-dose) and 0.25, 0.5, 1, 2, 4, 7 and 24 h post dosing and subjected to the CB2 flow cytometry analysis (FIG. 11).
In this in vivo cyno study three cynomolgus monkeys were orally dosed with 100 mg/kg of RG7774. Blood sampling for TE-assay was performed at selected time points: −96, −24 (both time points not shown), 0 (predose) and 0.25, 0.5, 1, 2, 4, 7, 24, 31, 48 and 72 hours post-dosing (FIG. 12).

## Cn1nnnc1Cn1nnc2c(N3CC[C@H](O)C3)nc(C(C)(C)C)nc21 [RG7774, (S)-1-[5-tert-Butyl-3-(1-methyl-1H-tetrazol-5-ylmethyl)-3H-[1,2,3]triazolo [4,5-d]pyrimidin-7-yl]-pyrrolidin-3-ol]
CB2 [1]; Basophils (data not shown)
  reduction of the CB2 cell surface expression: can also be detected
CB2 [1]; Healthy Participants (working-age), reference group
  Fold change vs HPs of mean IC50 (CB2 on B-cells): 1
CB2 [1]; IC50, individual working-age healthy donors, whole blood 1 hour 37° C., B/T-cell CB2 MFI ratio
  pIC50: 6.90 and 7.09 and 7.19 and 7.06 and 6.84
CB2 [1]; Individual IC50 values, range over donors, healthy human participants
  pIC50: 6.84 to 7.19
CB2 [1]; T-cells, Monocytes, NK-cells, Eosinophils and Neutrophils (data not shown)
  reduction of the CB2 cell surface expression: has not been observed
CB2 [2]; 100 mg/kg oral
  onset of pharmacodynamic effect on CB2 surface expression on B-cells: ≤ 15 min
CB2 [2]; single oral doses 0.5, 5 and 100 mg/kg
  duration of reduction of CB2 expression on B-cells: around 24 hours
CB2 [2]; single oral doses 0.5, 5 and 100 mg/kg micro suspension
  reduction relative to individual baseline CB2 expression on B-cells: dose dependent reduction
CB2 [2]; three cynomolgus monkeys, 100 mg/kg oral
  responder status in vivo: One out of three cynos is a non-responder
